Experimental data: patent publication US9353081B2, “Bicyclic dihydroquinoline-2-one derivatives” (Hoffmann-La Roche Inc., priority 2011, dated 2016)
Counter-ions that a name gives are not always drawn.

Assays:
human CYP11B2 = human CYP11B2 (Homo sapiens (Human), UniProt P19099); assay: G-402 cellular enzyme assay, human CYP11B2 (aldosterone release, HTRF); format: cell-based; conditions: G-402 cells expressing human CYP11B2; 1 μM Deoxycorticosterone
Excerpt: (§1) Specifically we developed stable G-402 cells expressing ectopically human CYP11B1, human CYP11B2, human CYP11A1, cynomolgus CYP11B1 or cynomolgus CYP11B2 enzyme activity.
(§2) The expression plasmids contains the ORF for either human/cyno CYP11B1 or CYP11B2 under the control of a suitable promoter (CMV-promoter) and a suitable resistance marker (neomycin). Using standard techniques the expression plasmid is transfected into G-402 cells and these cells are then selected for expressing the given resistance markers. Individual cell-clones are then selected and assessed for displaying the desired enzymatic activity using 11-Deoxycorticosterone (Cyp11B2) or 11-Deoxycortisol (Cyp11B1) as a substrate.
(§3) For assaying enzymatic activity, cells were plated onto 96 well plates and incubated for 16 h. An aliquot of the supernatant is then transferred and analyzed for the concentration of the expected product (Aldosterone for CYP11B2; Cortisol for CYP11B1). The concentrations of these steroids can be determined using HTRF assays from CisBio analyzing either Aldosterone or Cortisol.
(§4) Inhibition of the release of produced steroids can be used as a measure of the respective enzyme inhibition by test compounds added during the cellular enzyme assay. The dose dependent inhibition of enzymatic activity by a compound is calculated by means of plotting added inhibitor concentrations x-axes) vs. measured steroid/product level (y-axes). The inhibition is then calculated by fitting the following 4-parameter sigmoidal function (Morgan-Mercer-Flodin (MMF) model) to the raw data points using the least squares method:
(§5) [formula] wherein, A is the maximum y value, B is the EC50 factor determined using XLFit, C is the minimum y value and D is the slope value.
(§6) EC50 values for compounds claimed herein were tested with the G402-based assay system described. Cyp11B2 enzyme activity was tested in presence of 1 μM Deoxycorticosterone and variable amounts of inhibitors; Cyp11B1 enzyme activity was tested in presence of 1 μM Deoxycortisol and variable amounts of inhibitors.

human CYP11B1 = human CYP11B1 (Homo sapiens (Human), UniProt P15538); assay: G-402 cellular enzyme assay, human CYP11B1 (cortisol release, HTRF); format: cell-based; conditions: G-402 cells expressing human CYP11B1; 1 μM Deoxycortisol
Chain of human CYP11B1 (P15538 25-503): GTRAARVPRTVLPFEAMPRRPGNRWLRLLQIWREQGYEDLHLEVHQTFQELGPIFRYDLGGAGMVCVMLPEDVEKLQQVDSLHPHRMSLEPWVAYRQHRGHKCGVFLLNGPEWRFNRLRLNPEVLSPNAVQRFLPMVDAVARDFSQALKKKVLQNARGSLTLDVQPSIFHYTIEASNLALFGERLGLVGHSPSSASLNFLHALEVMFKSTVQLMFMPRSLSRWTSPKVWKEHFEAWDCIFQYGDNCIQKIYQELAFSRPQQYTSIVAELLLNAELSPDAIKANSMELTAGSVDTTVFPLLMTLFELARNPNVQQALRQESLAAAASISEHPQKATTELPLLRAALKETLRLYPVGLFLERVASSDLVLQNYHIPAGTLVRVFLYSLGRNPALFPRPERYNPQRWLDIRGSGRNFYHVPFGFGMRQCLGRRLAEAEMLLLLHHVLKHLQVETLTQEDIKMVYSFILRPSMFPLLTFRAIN
Excerpt: as §1, §2, §3, §4, §5, §6

[1] = test system: rat model of chronic kidney disease; conditions: cited from earlier work; for plasma aldosterone: FAD286: 4 weeks of treatment, spironolactone: 4 and 8 weeks of treatment; for angiotensin II and salt-stimulated PAI-1 mRNA expression in the aorta and the heart / cardiac and aortic medial hypertrophy / renal effects of angiotensin II and high salt (albuminuria, azotemia, renovascular hypertrophy, glomerular injury, PAI-1 and osteopontin mRNA, tubulointerstitial fibrosis): rat CKD model
[2] = test system: rats with experimental heart failure; conditions: cited from earlier work
[3] = test system: patients with primary aldosteronism; conditions: cited from earlier work

Chain of human CYP11B2 (P19099 25-503): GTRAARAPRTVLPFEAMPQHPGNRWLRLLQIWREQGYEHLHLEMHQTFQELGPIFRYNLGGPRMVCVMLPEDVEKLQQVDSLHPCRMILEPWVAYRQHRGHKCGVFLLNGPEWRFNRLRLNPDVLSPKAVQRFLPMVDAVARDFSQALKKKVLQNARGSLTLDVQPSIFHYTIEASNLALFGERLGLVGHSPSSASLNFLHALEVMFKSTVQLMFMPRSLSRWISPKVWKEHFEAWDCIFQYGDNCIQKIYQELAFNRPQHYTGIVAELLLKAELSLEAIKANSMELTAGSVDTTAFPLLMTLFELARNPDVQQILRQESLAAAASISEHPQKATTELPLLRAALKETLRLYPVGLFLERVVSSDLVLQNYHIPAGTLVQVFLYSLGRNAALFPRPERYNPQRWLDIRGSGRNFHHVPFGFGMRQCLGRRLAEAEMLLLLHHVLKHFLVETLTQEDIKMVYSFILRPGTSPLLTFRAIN

Row | SMILES | EC50 (human CYP11B2) | EC50 (human CYP11B1) | also measured
1 | CCC(=O)NC1CCc2c(-c3cc(Cl)c4c(c3)CCC(=O)N4C)cncc21 (single isomer, unassigned; (+)) [Example 60, (+)-(R or S)—N-(4-(8-Chloro-1-methyl-2-oxo-1,2,3,4-tetrahydroquinolin-6-yl)-6,7-dihydro-5H-cyclopenta[c]pyridin-7-yl)propionamide] | 8.8 nM | 1170 nM | –
2 | CCC(=O)NC1CCCc2c(-c3ccc4c(c3)CCC(=O)N4C)cncc21 (single isomer, unassigned; (-)) [Example 2, (−)-(R or S)—N-(4-(1-Methyl-2-oxo-1,2,3,4-tetrahydroquinolin-6-yl)-5,6,7,8-tetrahydroisoquinolin-8-yl)propionamide] | 1020 nM | 12100 nM | –
3 | CCS(=O)(=O)NC1CCCc2c(-c3ccc4c(c3)CCC(=O)N4C)cncc21 (single isomer, unassigned; (-)) [Example 5, (−)-(R or S)—N-(4-(1-Methyl-2-oxo-1,2,3,4-tetrahydroquinolin-6-yl)-5,6,7,8-tetrahydroisoquinolin-8-yl)ethanesulfonamide] | 1290 nM | 11800 nM | –
4 | C[C@@H](O)C(=O)NC1CCCc2c(-c3ccc4c(c3)CCC(=O)N4C)cncc21 (single isomer, unassigned; (-)) [Example 19, (−)-(2R)-2-Hydroxy-N-((4S or 4R)-4-(1-methyl-2-oxo-1,2,3,4-tetrahydroquinolin-6-yl)-5,6,7,8-tetrahydroisoquinolin-8-yl)propanamide] | 493 nM | 13200 nM | –
5 | C[C@H](O)C(=O)NC1CCCc2c(-c3ccc4c(c3)CCC(=O)N4C)cncc21 (single isomer, unassigned; (-)) [Example 20, (−)-(2S)-2-hydroxy-N-((4S or 4R)-4-(1-methyl-2-oxo-1,2,3,4-tetrahydroquinolin-6-yl)-5,6,7,8-tetrahydroisoquinolin-8-yl)propanamide] | 823 nM | 25500 nM | –
6 | CCC(=O)NC1CCCc2c(-c3cc4c(cc3F)N(C)C(=O)CC4)cncc21 (single isomer, unassigned; (-)) [Example 29, (−)-(S or R)—N-[4-(7-Fluoro-1-methyl-2-oxo-1,2,3,4-tetrahydro-quinolin-6-yl)-5,6,7,8-tetrahydro-isoquinolin-8-yl]-propionamide] | 1790 nM | 42600 nM | –
7 | CCS(=O)(=O)NC1CCCc2c(-c3cc4c(cc3F)N(C)C(=O)CC4)cncc21 (single isomer, unassigned; (-)) [Example 31, (−)-(S or R)-Ethanesulfonic acid [4-(7-fluoro-1-methyl-2-oxo-1,2,3,4-tetrahydro-quinolin-6-yl)-5,6,7,8-tetrahydro-isoquinolin-8-yl]-amide] | 1040 nM | 14500 nM | –
8 | CCC(=O)N[C@@H]1CCCc2c(-c3ccc4c(c3)CCC(=O)N4C)cncc21 [Example 3-1, (+)-(R)—N-(4-(1-Methyl-2-oxo-1,2,3,4-tetrahydroquinolin-6-yl)-5,6,7,8-tetrahydroisoquinolin-8-yl)propionamide] | 14 nM | 980 nM | –
9 | CN1C(=O)CCc2cc(-c3cncc4c3CCCN4CCNC(=O)OC(C)(C)C)ccc21 [Example 11, {2-[5-(1-Methyl-2-oxo-1,2,3,4-tetrahydro-quinolin-6-yl)-3,4-dihydro-2H-[1,7]naphthyridin-1-yl]-ethyl}-carbamic acid tert-butyl ester] | 23 nM | 420 nM | –
10 | CN1C(=O)CCc2cc(-c3cncc4c3CCCN4CCN)ccc21 [Example 12, 6-[1-(2-Amino-ethyl)-1,2,3,4-tetrahydro-[1,7]naphthyridin-5-yl]-1-methyl-3,4-dihydro-1H-quinolin-2-one hydrochloride] | 4 nM | 1880 nM | –
11 | CCC(=O)NCCN1CCCc2c(-c3ccc4c(c3)CCC(=O)N4C)cncc21 [Example 13, N-{2-[5-(1-Methyl-2-oxo-1,2,3,4-tetrahydro-quinolin-6-yl)-3,4-dihydro-2H-[1,7]naphthyridin-1-yl]-ethyl}-propionamide] | 14 nM | 1810 nM | –
12 | CCS(=O)(=O)NCCN1CCCc2c(-c3ccc4c(c3)CCC(=O)N4C)cncc21 [Example 14, N-(2-(5-(1-Methyl-2-oxo-1,2,3,4-tetrahydroquinolin-6-yl)-3,4-dihydro-1,7-naphthyridin-1(2H)-yl)ethyl)ethanesulfonamide] | 11 nM | 210 nM | –
13 | CC(O)C(=O)NC1CCCc2c(-c3ccc4c(c3)CCC(=O)N4C)cncc21 [Example 15, (2R,S)-2-Hydroxy-N-[(4R,S)-4-(1-methyl-2-oxo-1,2,3,4-tetrahydroquinolin-6-yl)-5,6,7,8-tetrahydroisoquinolin-8-yl]propanamide] | 77.3 nM | 574 nM | –
14 | C[C@@H](O)C(=O)NC1CCCc2c(-c3ccc4c(c3)CCC(=O)N4C)cncc21 (stereo partly drawn) [Example 16, (2R)-2-Hydroxy-N-((4R,S)-4-(1-methyl-2-oxo-1,2,3,4-tetrahydroquinolin-6-yl)-5,6,7,8-tetrahydroisoquinolin-8-yl)propanamide] | 30.8 nM | 1050 nM | –
15 | C[C@H](O)C(=O)NC1CCCc2c(-c3ccc4c(c3)CCC(=O)N4C)cncc21 (stereo partly drawn) [Example 17, (2S)-2-Hydroxy-N-((4R,S)-4-(1-methyl-2-oxo-1,2,3,4-tetrahydroquinolin-6-yl)-5,6,7,8-tetrahydroisoquinolin-8-yl)propanamide] | 31.6 nM | 885 nM | –
16 | CN1C(=O)CCc2cc(-c3cncc4c3CCC[C@H]4N)ccc21 [Example 61, (R)-6-(8-Amino-5,6,7,8-tetrahydroisoquinolin-4-yl)-1-methyl-3,4-dihydroquinolin-2(1H)-one] | 5.6 nM | 450 nM | –
17 | CN1C(=O)CCc2cc(-c3cncc4c3CCC[C@H]4NC(=O)c3ncccc3Cl)ccc21 [Example 62, 3-Chloro-pyridine-2-carboxylic acid [(R)-4-(1-methyl-2-oxo-1,2,3,4-tetrahydro-quinolin-6-yl)-5,6,7,8-tetrahydro-isoquinolin-8-yl]-amide] | 5.3 nM | 558 nM | –
18 | CC(=O)N[C@@H]1CCCc2c(-c3ccc4c(c3)CCC(=O)N4C)cncc21 [Example 63, N—[(R)-4-(1-Methyl-2-oxo-1,2,3,4-tetrahydro-quinolin-6-yl)-5,6,7,8-tetrahydro-isoquinolin-8-yl]-acetamide] | 4.8 nM | 1190 nM | –
19 | CN1C(=O)CCc2cc(-c3cncc4c3CCC[C@H]4NC(=O)C3CC3)ccc21 [Example 64, Cyclopropanecarboxylic acid [(R)-4-(1-methyl-2-oxo-1,2,3,4-tetrahydro-quinolin-6-yl)-5,6,7,8-tetrahydro-isoquinolin-8-yl]-amide] | 46.2 nM | 2360 nM | –
20 | CN1C(=O)CCc2cc(-c3cncc4c3CCC[C@H]4NS(C)(=O)=O)ccc21 [Example 65, N—[(R)-4-(1-Methyl-2-oxo-1,2,3,4-tetrahydro-quinolin-6-yl)-5,6,7,8-tetrahydro-isoquinolin-8-yl]-methanesulfonamide] | 17 nM | 1930 nM | –
21 | CN1C(=O)CCc2cc(-c3cncc4c3CCC[C@H]4NS(=O)(=O)C3CC3)ccc21 [Example 66, Cyclopropanesulfonic acid [(R)-4-(1-methyl-2-oxo-1,2,3,4-tetrahydro-quinolin-6-yl)-5,6,7,8-tetrahydro-isoquinolin-8-yl]-amide] | 35.5 nM | 319 nM | –
22 | CN1C(=O)CCc2cc(-c3cncc4c3CCCC4=O)ccc21 [Example 70, 1-Methyl-6-(8-oxo-5,6,7,8-tetrahydro-isoquinolin-4-yl)-3,4-dihydro-1H-quinolin-2-one] | 15.7 nM | 7170 nM | –
23 | N#Cc1ccc(C2CCCc3cncn32)cc1 (stereo not shown) [FAD286] | – | – | plasma aldosterone [1]: reduced; angiotensin II and salt-stimulated PAI-1 mRNA expression in the aorta and the heart [1]: not; cardiac and aortic medial hypertrophy [1]: attenuated; renal effects of angiotensin II and high salt (albuminuria, azotemia, renovascular hypertrophy, glomerular injury, PAI-1 and osteopontin mRNA, tubulointerstitial fibrosis) [1]: prevented these renal effects; blood pressure and cardiovascular function and structure [2]: improved; kidney function and morphology [2]: improve
24 | N#Cc1ccc([C@H]2CCc3cncn32)c(F)c1 [LCI699] | – | – | blood pressure [3]: mildly decreased; hypokalemia [3]: corrected; selectivity (effects on the glucocorticoid axis, cortisol synthesis) [3]: poor selectivity; circulating aldosterone levels ([3]; oral): significantly lower
25 | CC(=O)S[C@@H]1CC2=CC(=O)CC[C@]2(C)[C@H]2CC[C@@]3(C)[C@@H](CC[C@@]34CCC(=O)O4)[C@H]12 [spironolactone] | – | – | plasma aldosterone [1]: increased; angiotensin II and salt-stimulated PAI-1 mRNA expression in the aorta and the heart [1]: enhanced; cardiac and aortic medial hypertrophy [1]: attenuated; renal effects of angiotensin II and high salt (albuminuria, azotemia, renovascular hypertrophy, glomerular injury, PAI-1 and osteopontin mRNA, tubulointerstitial fibrosis) [1]: prevented these renal effects
